Experimental data as given in patent EP0603240B1, “SAFENING HERBICIDAL PYRAZOLYLSULFONYLUREAS” (priority 1991, dated 1993).

Legend:
Experiment in all cases: Example 24, Procedure II: Herbicide No. 1 + co-herbicides Nos. 4, 6, 7, 12 with Antidote Nos. 15 and 17-21
Type in all cases: in vivo
[1] = system: Giant foxtail (Setaria fabergi)
Procedure: (§1) Containers were filled and compacted with a fumigated silt loam top soil to a depth of about 1.3 cm from the top of the container. A first container was designated as an untreated control, a second container was designated as a herbicide control, and a third container was designated as a herbicide + antidote test container. Each of the containers was seeded with a crop species. A measured amount of herbicide dispersed or dissolved in acetone was applied to a measured quantity of soil. To this same quantity of soil treated with herbicide, there was added a measured amount of antidote dispersed or dissolved in acetone. The quantity of soil treated with the herbicide and antidote was thoroughly mixed to incorporate the herbicide and antidote in the soil uniformly. The seed bed in the third container of soil was covered with the soil treated with the herbicide and antidote and the container was leveled. For each test series, the seed beds of the first and second containers were likewise covered by soil layers. the cover layer of the first container was not treated with herbicide or antidote.
(§2) The containers were then placed on a bench in a greenhouse and sub-irrigated as required for the duration of the test. […] Plant response is measured in terms of percent injury. Antidote efficacy is indicated as the difference in plant injury by the herbicide(s) without the antidote and with the antidote.
(§3) This procedure is the same as Procedure I, but modified in the manner that after incorporation of the chemicals (herbicide and antidote) the containers with the covered seedbed were treated with an initial overhead irrigation equivalent to 0.6 cm rainfall, then subsequently sub-irrigated as required on greenhouse benches.
(§4) In other greenhouse tests, using Procedure II described above, the safening efficacy of Antidote Nos. 15 and 17-21 was evaluated against Herbicide No. 1 in corn in the presence of Giant foxtail (Setaria fabergi) and Velvetleaf (Abutilon theophrasti) as representative annual monocotyledonous and dicotyledonous weeds, respectively.
(§5) Test results are shown in Tables 23A and 23B wherein the indicated plant inhibition represents the average of duplicate replications, with observations being made thirteen (13) days after application of the chemicals. Giant foxtail and Velvetleaf are represented by the symbols "GFT" and "VL", respectively. The data in Table 23A show the test results using the antidotes at 2.24 kg/ha, whereas in Table 23B, the antidotal rate was reduced to 0.56 kg/ha.
(§6) The tests described in Example 23 were duplicated, but in this example a variety of co-herbicides were included to ascertain the efficacy of the antidotes against combinations of Herbicide No. 1 and Herbicides Nos. 4, 6, 7 and 12 as co-herbicides. Test results are shown in Table 24, wherein the antidote application rate was 2.24 kg/ha.

corn = system: corn
Procedure: as §1, §2, §3, §4, §5, §6

[2] = system: velvetleaf (Abutilon theophrasti)
Procedure: as §1, §2, §3, §4, §5, §6

[3] = Herb. No. 1 0.07 Kg/ha + Co-Herb. No. 4 1.12 Kg/ha + antidote 2.24 Kg/ha
[4] = Herb. No. 1 0.07 Kg/ha + Co-Herb. No. 6 0.14 Kg/ha + antidote 2.24 Kg/ha
[5] = Herb. No. 1 0.07 Kg/ha + Co-Herb. No. 7 0.28 Kg/ha + antidote 2.24 Kg/ha
[6] = Herb. No. 1 0.07 Kg/ha + Co-Herb. No. 12 0.28 Kg/ha + antidote 2.24 Kg/ha
[7] = Herb. No. 1 0.14 Kg/ha + Co-Herb. No. 4 1.12 Kg/ha + antidote 2.24 Kg/ha
[8] = Herb. No. 1 0.14 Kg/ha + Co-Herb. No. 6 0.14 Kg/ha + antidote 2.24 Kg/ha
[9] = Herb. No. 1 0.14 Kg/ha + Co-Herb. No. 7 0.28 Kg/ha + antidote 2.24 Kg/ha
[10] = Herb. No. 1 0.14 Kg/ha + Co-Herb. No. 12 0.28 Kg/ha + antidote 2.24 Kg/ha
[11] = Herb. No. 1 0.28 Kg/ha + Co-Herb. No. 4 1.12 Kg/ha + antidote 2.24 Kg/ha
[12] = Herb. No. 1 0.28 Kg/ha + Co-Herb. No. 6 0.14 Kg/ha + antidote 2.24 Kg/ha
[13] = Herb. No. 1 0.28 Kg/ha + Co-Herb. No. 7 0.28 Kg/ha + antidote 2.24 Kg/ha
[14] = Herb. No. 1 0.28 Kg/ha + Co-Herb. No. 12 0.28 Kg/ha + antidote 2.24 Kg/ha
[15] = Herb. No. 1 0.56 Kg/ha + Co-Herb. No. 4 1.12 Kg/ha + antidote 2.24 Kg/ha
[16] = Herb. No. 1 0.56 Kg/ha + Co-Herb. No. 6 0.14 Kg/ha + antidote 2.24 Kg/ha
[17] = Herb. No. 1 0.56 Kg/ha + Co-Herb. No. 7 0.28 Kg/ha + antidote 2.24 Kg/ha
[18] = Herb. No. 1 0.56 Kg/ha + Co-Herb. No. 12 0.28 Kg/ha + antidote 2.24 Kg/ha

CC1COc2ccccc2N1C(=O)C(Cl)Cl (stereo not drawn) [compound 17]
100%: % Inhibition GFT [1, 4] | % Inhibition GFT [1, 5] | % Inhibition GFT [1, 8] | % Inhibition GFT [1, 9] | % Inhibition GFT [1, 13] | % Inhibition GFT [1, 18]
99%: % Inhibition GFT [1, 6] | % Inhibition GFT [1, 10] | % Inhibition GFT [1, 16] | % Inhibition GFT [1, 17]
0%: % Inhibition Corn (corn; [3]) | % Inhibition Corn (corn; [5]) | % Inhibition Corn (corn; [7]) | % Inhibition Corn (corn; [8]) | % Inhibition Corn (corn; [9])
20%: % Inhibition Corn (corn; [15]) | % Inhibition Corn (corn; [18])
98%: % Inhibition GFT [1, 12] | % Inhibition GFT [1, 14] | % Inhibition VL [2, 10] | % Inhibition VL [2, 13] | % Inhibition VL [2, 14] | % Inhibition VL [2, 16] | % Inhibition VL [2, 17]
15%: % Inhibition Corn (corn; [12]) | % Inhibition Corn (corn; [16]) | % Inhibition Corn (corn; [17])
90%: % Inhibition VL [2, 3] | % Inhibition VL [2, 4] | % Inhibition VL [2, 6] | % Inhibition VL [2, 7] | % Inhibition VL [2, 8] | % Inhibition VL [2, 11]
55%: % Inhibition GFT [1, 3]
95%: % Inhibition VL [2, 9] | % Inhibition VL [2, 12] | % Inhibition VL [2, 15] | % Inhibition VL [2, 18]
5%: % Inhibition Corn (corn; [4]) | % Inhibition Corn (corn; [6]) | % Inhibition Corn (corn; [10]) | % Inhibition Corn (corn; [11]) | % Inhibition Corn (corn; [13]) | % Inhibition Corn (corn; [14])
85%: % Inhibition VL [2, 5]
70%: % Inhibition GFT [1, 15]
50%: % Inhibition GFT [1, 7]
45%: % Inhibition GFT [1, 11]

O=C(O)COC(c1ccccc1)c1ccccc1 [compound 18]
65%: % Inhibition GFT [1, 3] | % Inhibition GFT [1, 15]
5%: % Inhibition Corn (corn; [3]) | % Inhibition Corn (corn; [7]) | % Inhibition Corn (corn; [11]) | % Inhibition Corn (corn; [12]) | % Inhibition Corn (corn; [13])
98%: % Inhibition VL [2, 16] | % Inhibition VL [2, 17]
55%: % Inhibition GFT [1, 7]
100%: % Inhibition GFT [1, 4] | % Inhibition GFT [1, 6] | % Inhibition GFT [1, 13] | % Inhibition GFT [1, 14] | % Inhibition GFT [1, 16] | % Inhibition GFT [1, 17]
70%: % Inhibition GFT [1, 11]
10%: % Inhibition Corn (corn; [9]) | % Inhibition Corn (corn; [14]) | % Inhibition Corn (corn; [15]) | % Inhibition Corn (corn; [17])
0%: % Inhibition Corn (corn; [4]) | % Inhibition Corn (corn; [5]) | % Inhibition Corn (corn; [6]) | % Inhibition Corn (corn; [8]) | % Inhibition Corn (corn; [10])
99%: % Inhibition GFT [1, 5] | % Inhibition GFT [1, 8] | % Inhibition GFT [1, 9] | % Inhibition GFT [1, 10] | % Inhibition GFT [1, 12] | % Inhibition GFT [1, 18] | % Inhibition VL [2, 10]
95%: % Inhibition VL [2, 7] | % Inhibition VL [2, 8] | % Inhibition VL [2, 9] | % Inhibition VL [2, 11] | % Inhibition VL [2, 12] | % Inhibition VL [2, 13] | % Inhibition VL [2, 14] | % Inhibition VL [2, 18]
20%: % Inhibition Corn (corn; [16])
80%: % Inhibition VL [2, 6]
15%: % Inhibition Corn (corn; [18])
90%: % Inhibition VL [2, 3] | % Inhibition VL [2, 4] | % Inhibition VL [2, 5] | % Inhibition VL [2, 15]
